Several values for one entry are separate records, joined by “and”; a condition that tells them apart may be missing. Identical values can stand only once. Values belong to the molecule of their own block, whether it stands above or below them. Where a SMILES comes first, the peptide text is derived from it. [ ]: non-standard residue; d: D form. The star is where a group is joined. Phe(4-Br) = N[C@@H](Cc1ccc(Br)cc1)C(=O)O; Fmoc = O=C(OCC1c2ccccc2-c2ccccc21)*; PEG6 = NCCOCCOCCOCCOCCOCCOCCC(=O)O; NMeL = CN[C@@H](CC(C)C)C(=O)O; Nle = CCCC[C@H](N)C(=O)O; Aib = CC(C)(N)C(=O)O
Tests used:
[1] = target: neprilysin (NEP) (Homo sapiens, UniProt P08473); experiment: Neprilysin degradation assay (LC-MS, quantitative); settings: human, pH 7.5
neprilysin (NEP), sequence (P08473 whole entry, the tested form may be a part, canonical isoform): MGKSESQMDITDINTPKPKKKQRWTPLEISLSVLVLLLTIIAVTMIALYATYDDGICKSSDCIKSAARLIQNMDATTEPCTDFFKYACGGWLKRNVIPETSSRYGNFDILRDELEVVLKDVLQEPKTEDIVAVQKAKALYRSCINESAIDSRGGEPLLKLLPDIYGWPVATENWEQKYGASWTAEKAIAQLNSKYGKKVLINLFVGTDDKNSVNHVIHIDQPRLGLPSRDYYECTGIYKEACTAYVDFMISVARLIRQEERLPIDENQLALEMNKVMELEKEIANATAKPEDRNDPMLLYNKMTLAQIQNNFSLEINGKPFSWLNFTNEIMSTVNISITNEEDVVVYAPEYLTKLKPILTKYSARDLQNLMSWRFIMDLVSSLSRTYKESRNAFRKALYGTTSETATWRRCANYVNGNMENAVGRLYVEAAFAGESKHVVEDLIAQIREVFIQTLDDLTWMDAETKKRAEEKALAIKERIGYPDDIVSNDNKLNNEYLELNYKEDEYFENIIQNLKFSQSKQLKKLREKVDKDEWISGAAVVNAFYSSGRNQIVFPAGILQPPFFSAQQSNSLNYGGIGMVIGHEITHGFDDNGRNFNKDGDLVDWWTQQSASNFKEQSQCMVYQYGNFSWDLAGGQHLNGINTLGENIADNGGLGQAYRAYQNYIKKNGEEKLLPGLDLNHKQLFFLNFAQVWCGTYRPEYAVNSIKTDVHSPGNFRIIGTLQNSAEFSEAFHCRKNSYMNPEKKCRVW
Procedure: This experiment compared the in vitro NEP stability of the Arg/Leu peptides of the embodiments to native apelin isoforms and their A2 substituted counterparts. Peptides were incubated with recombinant human NEP (rhNEP, Sino Biological) at 37° C. for up to 72 h, and the extent of degradation was analyzed via LC-MS because of the overlapping elution patterns of peptide fragments. […] (McKinnie, S. M. K., et al. ChemBioChem: 17, 1495-1498 (2016)). […] (Dion, N., et al., Biochem. J.: 311, 623-627 (1995); Bateman Jr., R. C., et al., J. Biol. Chem.: 264, 6151-6157 (1989); McMurray, J. J. et al., J. Med.: 371, 993-1004 (2014)).
Apelin peptides were dissolved in Milli-Q water (1 mM). Recombinant human neprilysin (rhNEP, Sino Biological) was reconstituted in Tris buffer (100 mM Tris, 100 mM NaCl, 10 μM ZnCl2, pH 7.5). To initiate the assay, rhNEP was diluted in Tris buffer (3.1 nM final concentration), and preincubated at 37° C. for 10 minutes prior to the addition of 5 μL of apelin peptide (1 mM) and 1.5 μL internal standard dansyl-Tyr-Val-Gly-OH (1 mM). Aliquots (10 μL) were removed at 0, 1, 4, 24, and 72 h, quenched with 0.1 M EDTA (10 μL), diluted to 100 μL with Milli-Q water and analyzed by LC-MS. Assays were performed in triplicate (n=3) for each time point. Integrated peak areas of the parent apelin peptide and internal standard derived from LC-MS analyses, were extracted using Mass Hunter software (version B.04.00) and compared in positive extracted ion count modus (+EIC, extracted-ion chromatogram). […] (apelin:dansyl-YVG), to the same ratio at the different assay time points. The decrease in apelin:dansyl-YVG ratio was converted to a percentage of cleaved peptide over time.
The extent of degradation was analyzed via LC-MS because of the overlapping elution patterns of peptide fragments (NEP).
Native apelin-17 (2) and apelin peptides 5, 54, 56, 57, 58 and 59 were dissolved in Milli-Q water (1 mM). Recombinant human neprilysin (rhNEP, Sino Biological) was reconstituted in Tris buffer (100 mM Tris, 100 mM NaCl, 10 μM ZnCl2, pH 7.5). To initiate the assay, rhNEP was diluted in Tris buffer (3.1 nM final concentration) and preincubated at 37° C. for 10 min prior to the addition of 5 μL of apelin peptide (1 mM) and 1.5 μL of internal standard dansyl-Tyr-Val-Gly-OH (1 mM). Aliquots (10 μL) were removed at 0, 1, 4, 24, and 72 h, quenched with 0.1 M EDTA (10 μL), diluted to 100 μL with Milli-Q water, and analyzed by LC-MS. Assays were performed in triplicate (n=3) for each time point. Integrated peak areas of the parent apelin peptide and internal standard derived from LC-MS analyses were extracted using Mass Hunter software (version B.04.00) and compared in positive extracted ion count modus (+EIC). The extent of proteolysis was determined by comparing the initial (0 h) ratio of the integrated extracted ions of the parent apelin peptide to the internal dansyl-YVG standard (apelin/dansyl-YVG) to the same ratio at the different assay time points. The decrease in apelin/dansyl-YVG ratio was converted to a percentage of cleaved peptide over time.

[2] = target: Human plasma kallikrein KLKB1 (Homo sapiens, UniProt P03952); experiment: Plasma kallikrein KLKB1 qualitative cleavage assay (MALDI-TOF); settings: KLKB1, 37° C., first degradation products by MALDI-TOF
Human plasma kallikrein KLKB1, sequence (P03952 20-638): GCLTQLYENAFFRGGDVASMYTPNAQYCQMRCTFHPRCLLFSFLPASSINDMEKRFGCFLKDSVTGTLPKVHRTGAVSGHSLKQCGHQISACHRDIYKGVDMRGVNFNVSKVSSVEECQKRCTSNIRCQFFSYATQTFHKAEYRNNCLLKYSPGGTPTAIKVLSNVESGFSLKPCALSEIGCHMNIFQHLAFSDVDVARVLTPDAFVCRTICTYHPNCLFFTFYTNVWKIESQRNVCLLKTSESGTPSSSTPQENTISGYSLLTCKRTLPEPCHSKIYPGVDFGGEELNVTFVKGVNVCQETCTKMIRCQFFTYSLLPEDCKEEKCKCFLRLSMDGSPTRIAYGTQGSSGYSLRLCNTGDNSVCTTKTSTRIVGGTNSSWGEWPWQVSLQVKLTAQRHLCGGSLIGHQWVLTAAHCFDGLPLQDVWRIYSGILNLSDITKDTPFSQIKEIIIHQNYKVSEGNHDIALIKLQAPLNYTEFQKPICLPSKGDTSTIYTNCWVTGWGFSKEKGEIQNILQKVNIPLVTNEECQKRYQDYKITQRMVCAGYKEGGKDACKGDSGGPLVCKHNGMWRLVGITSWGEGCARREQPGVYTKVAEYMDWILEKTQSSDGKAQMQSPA
Procedure: Native apelin-17 (2) and apelin peptides 5, 56, 57, 58 and 59 were dissolved in Milli-Q water (1 mM). Human plasma kallikrein KLKB1 were each reconstituted in Tris buffer (100 mM TrisHCl, 10 mM CaCl2), 150 mM NaCl) and diluted with Tris buffer (50 mM TrisHCl, 250 mM NaCl) to give a KLKB1 concentration of […]. The KLKB1 enzyme was then preincubated at 37° C. for 10 minutes prior to the addition of 5 μL of apelin peptide (1 mM). Aliquots (1 μL) were taken at 1, 2, 4, 6, 12, 24, 36, and 48 hours and analyzed with MALDI-TOF mass spectrometry to qualitatively determine the time point at which degradation products could be observed (Table 4).

[3] = target: Recombinant Human Neprilysin (Homo sapiens, UniProt P08473); experiment: Neprilysin qualitative cleavage assay (MALDI-TOF); settings: rhNEP 2 ng/μL, 37° C., first degradation products by MALDI-TOF
Recombinant Human Neprilysin, sequence (P08473 whole entry): as the sequence (P08473 whole entry, the tested form may be a part, canonical isoform) above
Procedure: Native apelin-17 (2) and apelin peptides 5, 54, 56, 57, 58 and 59 were dissolved in Milli-Q water (1 mM). Recombinant Human Neprilysin (rhNEP, Sino Biological) was reconstituted in Tris buffer (100 mM Tris, 100 mM NaCl, 10 mM ZnCl2, pH 7.5). To initiate the assays, rhNEP was diluted in Tris buffer to a 2 ng/μL final concentration, and pre-incubated at 37° C. for 10 minutes prior to the addition of 5 μL of apelin peptide (1 mM). Aliquots (1 μL) were taken at 1, 2, 4, 6, 12, 24, 36, and 48 hours and analyzed with MALDI-TOF mass spectrometry to qualitatively determine the time point at which degradation products could be observed.

[4] = target: T1, KLKB1 (Homo sapiens, UniProt P03952); experiment: In vitro KLKB1 stability (half-life); type: in vitro ADME; set-up: purchased Novoprotein; settings: human; rhKLKB1, 37° C.; read-out: t1/2 (rhKLKB1, h) (converted)
T1 sequence (P03952 20-638): as the sequence (P03952 20-638) above

[5] = system: recombinant human neprilysin (rhNEP, Sino Biological); experiment: rhNEP diluted in Tris buffer (100 mM Tris, 100 mM NaCl, 10 μM ZnCl2, pH 7.5), 3.1 nM final concentration; settings: 37° C., up to 72 h
[6] = system: neprilysin (rhNEP); experiment: recombinant human NEP (rhNEP, Sino Biological) in Tris buffer (100 mM Tris, 100 mM NaCl, 10 μM ZnCl2, pH 7.5); settings: 37° C, up to 72 h
[7] = system: KLKB1 (rhKLKB1, Novoprotein); experiment: Human plasma kallikrein KLKB1 in Tris buffer, KLKB1 concentration of 2 ng/pL; settings: 37° C., up to 48 hours
[8] = human blood plasma (20 μL of plasma); settings: 37° C., up to 60 min
[9] = target: T1, KLKB1; settings: enzyme KLKB1, data from Gozzo et al. 2006; cited from earlier work

Molecule: CCCC[C@H](NC(=O)[C@@H]1CCCN1C(=O)CNC(=O)[C@H](CCCCN)NC(=O)[C@H](Cc1cnc[nH]1)NC(=O)[C@H](CO)NC(=O)[C@H](CC(C)C)N(C)C(=O)[C@H](CCCNC(=N)N)NC(=O)[C@@H]1CCCN1C(=O)[C@H](CCCNC(=N)N)NC(=O)[C@H](CCC(N)=O)NC(=O)[C@H](CCCNC(=N)N)NC(=O)[C@H](CCCNC(=N)N)NC(=O)[C@H](Cc1ccccc1)NC(=O)[C@H](CCCCN)NC(=O)CCOCCOCCOCCOCCOCCOCCNC(=O)OCC1c2ccccc2-c2ccccc21)C(=O)NC(C)(C)C(=O)N[C@@H](Cc1ccc(Br)cc1)C(=O)O [Peptide 59] ({Fmoc-PEG6}-KFRRQRPR[NMeL]SHKGP[Nle][Aib][Phe(4-Br)]-OH)
half-life [1]: > 30 h
Degradation Onset Timepoint with KLKB1 [2]: 2 h
Degradation Onset Timepoint with NEP [3]: >36 h
half-life [4]: 2.9 h

Molecule: Lys-Phe-Arg-Arg-Gln-Arg-Pro-Arg-Leu-Ser-His-Lys-Gly-Pro-Nle-Aib-paraBrPhe
cleaved bond [7]: Arg3-Arg4, <30 min
fragment found [8]: 1-3 and 4-17

Molecule: Lys-Phe-Arg-Arg-Gln-Arg-Pro-Arg-D-Leu-Ser-His-Lys-Gly-Pro-Nle-Aib-paraBrPhe
cleaved bond [5]: Nle15-Aib16, minor
cleaved bond [6]: Nle15-Aib16, minor

Molecule: CCCC[C@H](NC(=O)[C@@H]1CCCN1C(=O)CNC(=O)[C@H](CCCCN)NC(=O)[C@H](Cc1cnc[nH]1)NC(=O)[C@H](CO)NC(=O)[C@H](CC(C)C)NC(=O)[C@H](CCCNC(=N)N)NC(=O)[C@@H]1CCCN1C(=O)[C@H](CCCNC(=N)N)NC(=O)[C@H](CCC(N)=O)NC(=O)[C@H](CCCNC(=N)N)NC(=O)[C@H](CCCNC(=N)N)NC(=O)[C@H](Cc1ccccc1)NC(=O)[C@H](CCCCN)NC(=O)CCOCCOCCOCCOCCOCCOCCNC(=O)OCC1c2ccccc2-c2ccccc21)C(=O)NC(C)(C)C(=O)N[C@@H](Cc1ccc(Br)cc1)C(=O)O [Peptide 57] ({Fmoc-PEG6}-KFRRQRPRLSHKGP[Nle][Aib][Phe(4-Br)]-OH)
half-life [1]: > 30 h
Degradation Onset Timepoint with KLKB1 [2]: 1 h
Degradation Onset Timepoint with NEP [3]: 12 h
half-life [4]: 1.4 h

B1: Kininogen: KLKB1 substrate, kinetic data from Gozzo et al. (protein, UniProt P01042 19-644, looked up)
Kininogen-1: QESQSEEIDCNDKDLFKAVDAALKKYNSQNQSNNQFVLYRITEATKTVGSDTFYSFKYEIKEGDCPVQSGKTWQDCEYKDAAKAATGECTATVGKRSSTKFSVATQTCQITPAEGPVVTAQYDCLGCVHPISTQSPDLEPILRHGIQYFNNNTQHSSLFMLNEVKRAQRQVVAGLNFRITYSIVQTNCSKENFLFLTPDCKSLWNGDTGECTDNAYIDIQLRIASFSQNCDIYPGKDFVQPPTKICVGCPRDIPTNSPELEETLTHTITKLNAENNATFYFKIDNVKKARVQVVAGKKYFIDFVARETTCSKESNEELTESCETKKLGQSLDCNAEVYVVPWEKKIYPTVNCQPLGMISLMKRPPGFSPFRSSRIGEIKEETTVSPPHTSMAPAQDEERDSGKEQGHTRRHDWGHEKQRKHNLGHGHKHERDQGHGHQRGHGLGHGHEQQHGLGHGHKFKLDDDLEHQGGHVLDHGHKHKHGHGHGKHKNKGKKNGKHNGWKTEHLASSSEDSTTPSAQTQEKTEGPTPIPSLAKPGVTVTFSDFQDSDLIATMMPPISPAPIQSDDDWIPDIQIDPNGLSFNPISDFPDTTSPKCPGRPWKSVSEINPTTQMKESYYFDLTDGLS
Km [9]: 0.75 µM
kcat [9]: 0.031 s⁻¹

Now from value to molecule:

cleaved bond [5]: Nle11-Aib12, minor
cleaved bond [6]: Nle11-Aib12, minor
Molecule: pGlu-Arg-Pro-Arg-D-Leu-Ser-His-Lys-Gly-Pro-Nle-Aib-paraBrPhe

not cleaved [8]: 94 ± 3 % apelin at 60 min
cleaved bond [5]: Nle15-Aib16, minor
Molecule: Lys-Phe-Arg-Arg-Gln-Arg-Pro-azaArg-Leu-Ser-His-Lys-Gly-Pro-Nle-Aib-paraBrPhe

Reference: patent publication US10640545B2 (THE GOVERNORS OF THE UNIVERSITY OF ALBERTA, priority 2017, dated 2020)
